Molecular target: T1, ERR1 (also known as ERR-α or ERR-1) (Homo sapiens, UniProt P11474)
T1 sequence (P11474 193-421 limits assumed): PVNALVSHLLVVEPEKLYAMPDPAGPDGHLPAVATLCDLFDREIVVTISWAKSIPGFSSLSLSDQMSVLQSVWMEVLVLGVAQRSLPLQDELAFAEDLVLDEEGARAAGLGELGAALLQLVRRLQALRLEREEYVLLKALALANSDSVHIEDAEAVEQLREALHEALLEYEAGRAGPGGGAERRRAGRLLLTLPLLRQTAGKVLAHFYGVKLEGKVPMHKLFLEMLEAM
Assay: TR-FRET assay (disruption of co-activator peptide binding)
Assay type: biochemical
Conditions: 6His-tagged ERR1 LBD, GST-hSRC2 co-activator polypeptide; average of 3 independent experiments
How it was run: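 His6-ERR1 LBD (6 nM) with GST-SRC-2 peptide (6 nM), anti-GST Eu cryptate (30 nM) and anti-His XL665 (7.5 nM) in Tris pH 8/KCl/DTT/BSA buffer, equilibrated 4-18 h at 25 °C. Ex 340, em 615/665 nm; hyperbolic dose-response fit, mean of 3 experiments.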

COCC(=O)N1[C@H](C)CN(C2=NC(=O)/C(=C/c3ccc4c(cnn4Cc4ccc(Cl)cc4C(F)(F)F)c3)S2)C[C@@H]1C [Example 88, 5-[1-(4-Chloro-2-trifluoromethyl-benzyl)-1H-indazol-5-ylmethylene]-2-[4-(2-methoxy-acetyl)cis-3,5-dimethyl-piperazin-1-yl]-thiazol-4-one] gave an EC50 of 13 nM.
Cc1nn(Cc2ccc(Cl)cc2C(F)(F)F)c2ccc(/C=C3\SC(N4CCN(C)C(C)(C)C4)=NC3=O)cc12 [Example 278, 5-({1-[4-Chloro-2-(trifluoromethyl)benzyl]-3-methyl-1H-indazol-5-yl}methylidene)-2-(3,3,4-trimethylpiperazin-1-yl)-1,3-thiazol-4(5H)-one] showed an EC50 of 17 nM.
O=C1N=C(N2CCC3(CC2)NCNC3=O)S/C1=C\c1ccc2c(cnn2Cc2ccc(Cl)cc2C(F)(F)F)c1 [Example 167, 8-{5-[1-(4-Chloro-2-trifluoromethyl-benzyl)-1H-indazol-5-ylmethylene]-4-oxo-4,5-dihydro-thiazol-2-yl}-1,3,8-triaza-spiro[4.5]decan-4-one] showed an EC50 of 16 nM.
Compound CS(=O)(=O)c1ccc(Cn2ncc3cc(/C=C4\SC(N5CCN(CCO)CC5)=NC4=O)ccc32)c(Cl)c1 [Compound 19, 5-[1-(2-Chloro-4-methanesulfonyl-benzyl)-1H-indazol-5-ylmethylene]-2-[4-(2-hydroxy-ethyl)-piperazin-1-yl]-thiazol-4-one] has an EC50 of 350 nM.
Compound CC(=O)NC1CCN(C2=NC(=O)/C(=C/c3ccc4c(cnn4Cc4ccc(C(F)(F)F)cc4C(F)(F)F)c3)S2)CC1 [Example 108, N-(1-{5-[1-(2,4-Bis-trifluoromethyl-benzyl)-1H-indazol-5-ylmethylene]-4-oxo-4,5-dihydro-thiazol-2-yl}-piperidin-4-yl)-acetamide] has an EC50 of 30.2 nM.
O=C1N=C(N2CCC(n3cnnn3)CC2)S/C1=C\c1ccc2c(cnn2Cc2ccc(Cl)cc2C(F)(F)F)c1 [Example 150, 5-[1-(4-Chloro-2-trifluoromethyl-benzyl)-1H-indazol-5-ylmethylene]-2-(4-tetrazol-1-yl-piperidin-1-yl)-thiazol-4-one] was tested, and the EC50 was 48 nM.
For O=C1N=C(N2CC(C(=O)O)C2)S/C1=C\c1ccc2c(cnn2Cc2ccc(Cl)cc2C2CC2)c1 [Example 94, 1-(5-[1-(4-Chloro-2-cyclopropyl-benzyl)-1H-indazol-5-ylmethylene]-4-oxo-dihydro-thiazol-2-yl)-azetidine-3-carboxylic acid], the EC50 was 26 nM.
For CC(C)N[C@@H]1C[C@H](CO)N(C2=NC(=O)/C(=C/c3ccc4c(cnn4Cc4ccc(Cl)cc4C(F)(F)F)c3)S2)C1 [Example 263], the EC50 was 42 nM.
Cc1nn(Cc2ccc(Cl)cc2C(F)(F)F)c2ccc(/C=C3\SC(N4CCN[C@H](CO)C4)=NC3=O)cc12 [Example 277, 5-({1-[4-Chloro-2-(trifluoromethyl)benzyl]-3-methyl-1H-indazol-5-yl}methylidene)-2-[(3S)-3-(hydroxymethyl)piperazin-1-yl]-1,3-thiazol-4(5H)-one] gave an EC50 of 9 nM.
For O=C1N=C(N2CC[C@H](NC(=O)C(F)(F)F)C2)S/C1=C\c1ccc2c(cnn2Cc2ccc(Cl)cc2C(F)(F)F)c1 (stereo in doubt) [Example 116, N-(1-{5-[1-(4-Chloro-2-trifluoromethyl-benzyl)-1H-indazol-5-ylmethylene]-4-oxo-4,5-dihydro-thiazol-2-yl}-pyrrolidin-3-yl)-2,2,2-trifluoro-acetamide], the EC50 was 11 nM.
CCOC(=O)N1CCCN(C2=NC(=O)/C(=C/c3ccc4c(cnn4Cc4ccc(C(F)(F)F)cc4C(F)(F)F)c3)S2)CC1 [Example 129, 4-{5-[1-(2,4-Bis-trifluoromethyl-benzyl)-1H-indazol-5-ylmethylene]-4-oxo-4,5-dihydro-thiazol-2-yl}-[1,4]diazepane-1-carboxylic acid ethyl ester] gave an EC50 of 28 nM.
In the case of O=C1N=C(N2CCn3cccc3C2)S/C1=C\c1ccc2c(cnn2Cc2ccc(C(F)(F)F)cc2C(F)(F)F)c1 [Example 169, 5-[1-(2,4-Bis-trifluoromethyl-benzyl)-1H-indazol-5-ylmethylene]-2-(3,4-dihydro-1H-pyrrolo[1,2-a]pyrazin-2-yl)-thiazol-4-one], the EC50 is reported as 225 nM.
With O=C1N=C(N2CCN(CCO)CC2)S/C1=C\c1ccc2c(cnn2Cc2ccc(Cl)cc2Cl)c1 [Compound 14, 5-[1-(2,4-Dichloro-benzyl)-1H-indazol-5-ylmethylene]-2-[4-(2-hydroxy-ethyl)-piperazin-1-yl]thiazol-4-one] the EC50 was 68 nM.
N[C@H]1CCCN(C2=NC(=O)/C(=C/c3ccc4c(cnn4Cc4ccc(Cl)cc4C(F)(F)F)c3)S2)C1 [Example 60, 2-(3-(S)-Amino-piperidin-1-yl)-5-[1-(4-chloro-2-trifluoromethyl-benzyl)-1H-indazol-5-ylmethylene]-thiazol-4-one] gave an EC50 of 19.7 nM.
With O=C1N=C(N2CCN[C@H](CO)C2)S/C1=C\c1ccc2c(cnn2Cc2ccc(Cl)cc2C(F)(F)F)c1 [Example 206, 5-({1-[4-Chloro-2-(trifluoromethyl)benzyl]-1H-indazol-5-yl}methylidene)-2-[3-(S)-(hydroxymethyl)piperazin-1-yl]-1,3-thiazol-4(5H)-one] the EC50 was 28 nM.
O=C1N=C(N2C[C@@H](F)C[C@H]2C(=O)O)S/C1=C\c1ccc2c(cnn2Cc2ccc(Cl)cc2C(F)(F)F)c1 [Example 189, 1-[5-({1-[4-Chloro-2-(trifluoromethyl)benzyl]-1H-indazol-5-yl}methylidene)-4-oxo-4,5-dihydro-1,3-thiazol-2-yl]-4-(S)-fluoro-L-proline] showed an EC50 of 24 nM.
With O=C1N=C(N2CCN[C@H](CO)C2)S/C1=C\c1ccc2c(cnn2Cc2ccc(C(F)(F)F)cc2C(F)(F)F)c1 [Example 200, 5-({1-[2,4-Bis(trifluoromethyl)benzyl]-1H-indazol-5-yl}methylidene)-2-[3-(S)-(hydroxymethyl)piperazin-1-yl]-1,3-thiazol-4(5H)-one] the EC50 was 13 nM.
O=C1N=C(N2C[C@H](O)C[C@H]2C(=O)O)S/C1=C\c1ccc2c(cnn2Cc2ccc(Cl)cc2C(F)(F)F)c1 [Compound 11, 1-{5-[1-(4-Chloro-2-trifluoromethyl-benzyl)-1H-indazol-5-ylmethylene]-4-oxo-4,5-dihydro-thiazol-2-yl}-4-(R)-hydroxy-pyrrolidine-2-(S)-carboxylic acid] gave an EC50 of 57 nM.
Compound CN1CCN(C2=NC(=O)/C(=C/c3ccc4c(cnn4Cc4ccc(S(C)(=O)=O)cc4Cl)c3)S2)CC1 [Compound 17, 5-[1-(2-Chloro-4-methanesulfonyl-benzyl)-1H-indazol-5-ylmethylene]-2-(4-methyl-piperazin-1-yl)-thiazol-4-one] has an EC50 greater than 4000 nM.
For COC(=O)CCNC(=O)C1CN(C2=NC(=O)/C(=C/c3ccc4c(cnn4Cc4ccc(C(F)(F)F)cc4C(F)(F)F)c3)S2)C1 [Example 153, 3-[(1-{5-[1-(2,4-Bis-trifluoromethyl-benzyl)-1H-indazol-5-ylmethylene]-4-oxo-4,5-dihydro-thiazol-2-yl}-azetidine-3-carbonyl)-amino]-propionic acid methyl ester], the EC50 was 44 nM.
Compound O=C1CN(C2=NC(=O)/C(=C/c3ccc4c(cnn4Cc4ccc(Cl)cc4C(F)(F)F)c3)S2)C1 [Example 102, 5-[1-(4-Chloro-2-trifluoromethyl-benzyl)-1H-indazol-5-ylmethylene]-2-(3-oxo-azetidin-1-yl)-thiazol-4-one] has an EC50 of 22 nM.
Work on O=C(O)CC1CCN(C2=NC(=O)/C(=C/c3ccc4c(cnn4Cc4ccc(Cl)cc4C(F)(F)F)c3)S2)C1 (stereo not drawn) [Example 145, (1-{5-[1-(4-Chloro-2-trifluoromethyl-benzyl)-1H-indazol-5-ylmethylene]-4-oxo-4,5-dihydro-thiazol-2-yl}-pyrrolidin-3-yl)-acetic acid] yielded an EC50 of 21 nM.
Cc1nn(Cc2ccc(C(F)(F)F)cc2C(F)(F)F)c2ccc(/C=C3\SC(N4CCO[C@H](CO)C4)=NC3=O)cc12 [Example 180, 5-[1-(2,4-Bis-trifluoromethyl-benzyl)-3-methyl-1H-indazol-5-ylmethylene]-2-(2-(S)-hydroxymethyl-morpholin-4-yl)-thiazol-4-one] showed an EC50 of 21 nM.
O=C1N=C(N2C[C@H](O)[C@@H](N3CCOCC3)C2)S/C1=C\c1ccc2c(cnn2Cc2ccc(C(F)(F)F)cc2C(F)(F)F)c1 [Example 225, (5Z)-5-({1-[2,4-Bis(trifluoromethyl)benzyl]-1H-indazol-5-yl}methylidene)-2-[(3S,4S)-3-hydroxy-4-morpholin-4-ylpyrrolidin-1-yl]-1,3-thiazol-4(5H)-one] gave an EC50 of 18 nM.
CN1CCN(C2=NC(=O)/C(=C/c3ccc4c(cnn4Cc4ccc(C5CC5)cc4C(F)(F)F)c3)S2)CC1 [Example 27, 5-[1-(4-Cyclopropyl-2-trifluoromethyl-benzyl)-1H-indazol-5-ylmethylene]-2-(4-methyl-piperazin-1-yl)-thiazol-4-one] was tested, and the EC50 was 11 nM.
For O=C1N=C(N2CCNC3(CC3)C2)S/C1=C\c1ccc2c(cnn2Cc2ccc(C(F)(F)F)cc2C(F)(F)F)c1 [Example 179, 5-[1-(2,4-Bis-trifluoromethyl-benzyl)-1H-indazol-5-ylmethylene]-2-(4,7-diaza-spiro[2.5]oct-7-yl)-thiazol-4-one], the EC50 was 17 nM.
In the case of O=C1N=C(N2CCN[C@@H](CO)C2)S/C1=C\c1ccc2c(cnn2Cc2ccc(F)cc2C(F)(F)F)c1 [Example 178, 5-[1-(4-Fluoro-2-trifluoromethyl-benzyl)-1H-indazol-5-ylmethylene]-2-((3R)-3-hydroxymethyl-piperazin-1-yl)-thiazol-4-one], the EC50 is reported as 52 nM.
